Measurements as given in patent publication US20240424019A1, “SHP1 MODIFIED DENDRITIC CELLS AND EXTRACELLULAR VESICLES DERIVED THEREFROM AND ASSOCIATED METHODS” (BOARD OF REGENTS, THE UNIVERSITY OF TEXAS SYSTEM, priority 2021, published 2024).

Legend:
Type in all cases: cell-based
human IFN-γ+CD8+ T cells = assay: Coculture of human MoDCs with autologous T cells; conditions: VitE-treated vs vehicle-treated autologous MoDCs
Protocol: FIG. 2A: Percentage of human IFN-γ^+CD8^+ T cells in CD8^+ T cells in coculture with vehicle or VitE-treated autologous MoDCs (n=3). FIG. 2B: Representative flow cytometric analysis and quantification of antigen-specific OT-1 T cell proliferation stimulated with OVA-loaded mouse BMDCs that were treated with vehicle or VitE at day 3. FIG. 2C: Tumor growth curves of orthotopic EMT6 tumor-bearing mice treated with vehicle (Ctrl), Vitamin E (VitE), or VitE plus Cyt c (10 mg/kg. i.v, every other day starting on day 3) to deplete DCs (n=8/group). The statistical significance is defined by P-value: *P<0.05, **P<0.01, ***P<0.001. ****P<0.0001. Human leukocyte concentrate (buffy coat) was collected from healthy blood donor volunteers by MD Anderson Blood Donor Center. Written informed consent was obtained from all participating blood donors and the use of anonymized leftover specimens for scientific purposes was approved by the Ethics Committee of the MD Anderson Cancer Center. For the generation of monocyte-derived dendritic cells (MoDCs), peripheral blood of healthy individuals was applied to a Ficoll gradient (BD), and mononuclear cells were freshly isolated and cultured in the dish in a humidified incubator for 1 hour to let monocytes adhere. After removing the medium with non-adherent cells, the adherent monocytes were collected through vigorous pipetting. […]

human MoDCs = assay: DC activation markers on human MoDCs by flow cytometry
Text: Human leukocyte concentrate (buffy coat) was collected from healthy blood donor volunteers by MD Anderson Blood Donor Center. Written informed consent was obtained from all participating blood donors and the use of anonymized leftover specimens for scientific purposes was approved by the Ethics Committee of the MD Anderson Cancer Center. For the generation of monocyte-derived dendritic cells (MoDCs), peripheral blood of healthy individuals was applied to a Ficoll gradient (BD), and mononuclear cells were freshly isolated and cultured in the dish in a humidified incubator for 1 hour to let monocytes adhere. After removing the medium with non-adherent cells, the adherent monocytes were collected through vigorous pipetting. […]
We assessed the expression of co-stimulatory molecules on human MoDCs treated with indicated dietary components and nutritional supplements including VitE (50 μg/ml). […] The mean fluorescence intensity (MFI) of each molecule was normalized to the MFI of the vehicle-treated group measured by flow cytometry. We then quantitated DC activation markers CD40, CD86, and HLA-DR on human MoDCs treated with vehicle or VitE (50 μg/ml) for 48 h in the presence of LPS (100 ng/ml), as calculated by relative mean fluorescence intensity (MFI) compared to controls.

human iPSC-DCs = assay: Activation of human iPSC-derived DCs by flow cytometry; conditions: vitamin E 50 μg/ml or TPI-1 1 μg/ml, 72 h, gated on CD11c+
Text: FIG. 10A: Representative high magnification photomicrographs (100×, 200×, 400×) illustrating the morphology of colonies and individual cells of fully differentiated iPSC-derived DCs (iPSC-DCs) displaying characteristic DC morphology consisting of protrusions and veils of cytoplasm at the end of the differentiation procedure (day 23) after using the differentiation protocol for the addition and withdrawal of growth factors and cytokines. FIG. 10B: Phenotypic characterization of generated human iPSC-DCs. Representative flow cytometry analysis depicting the expression of DC lineage markers by iPSC-DCs gated on the CD11c+ population. Levels of expression of individual markers are shown as red histograms, while non-specific staining by isotype controls is shown as light blue histograms. FIG. 10C: Phenotypic characterization of human iPSC-DCs after treatment with vitamin E or TPI-1 to inhibit SHP1. Representative flow cytometry analysis (left panel) and quantification (right panel) depicting the expression of indicated activity markers by iPSC-DCs gated on the CD11c+population with the treatment of vehicle, vitamin E (50 μg/ml) or TPI-1 (1 μg/ml) for 72 h.
We explored the feasibility of differentiating populations of primary DCs from iPSCs and characterized the phenotype of iPSC-DC with the pharmacological inhibition of SHP1 by vitamin E or TPI-1. […]

`Cc1c(C)c2c(c(C)c1O)CC[C@@](C)(CCC[C@H](C)CCC[C@H](C)CCCC(C)C)O2` [VitE, D-α-Tocopherol] was tested, and the “IFNγ+CD8+ T cells in coculture” value (human IFN-γ+CD8+ T cells) was “increased autologous IFNγ+CD8+ cytotoxic T cells”, the “expression of DC activation markers (relative MFI)” value (human MoDCs; VitE 50 μg/ml 48 h, LPS 100 ng/ml) was “significantly increased expression of DC activation markers CD40, CD86, HLA-DR” and the “DC activation compared with other common nutritional supplements” value (human MoDCs; VitE 50 μg/ml vs VitC, VitD, VitB, VitB2, VitB12, DHA, 48 h then LPS 24 h) was “most effectively activated DCs”. The “expression of DC activation markers on iPSC-DCs” value (human iPSC-DCs) was “increased expression of DC activation markers CD40 and CD86”.
